How the values were obtained:
L-1210 leukemia cells [1] = experiment: Enhancement of carcinostatic activity of Arabinofuranocylcytocine to L-1210 leukemia cells (Table 6); format: in vivo, mouse (BDF1-strain); conditions: 1×10^3 cells; Ara-C 30 mg/kg × 5 i.p., B-TL 1/10 none or 0.25 ml × 7 s.c.
Protocol: (3) L-1210 leukemia cells were inoculated intraperitoneally into BDF1 -strain mice (male, 6 to 7 weeks old) in an amount of 1×10^3 cells per mouse, and B-TL 1/10 was administered subcutaneously at the back at a dose of 0.25 ml per mouse once a day repeatedly from the day of inoculation for 7 days in total. Arabinofuranocylcytocine (Ara-C) was administered intraperitoneally at a dose of 30 mg/kg once a day from the day following the inoculation of the cancerous cells for 5 days in total.

P-388 leukemia cells = experiment: Enhancement of carcinostatic activity of Mitomycin C to P-388 leukemia cells (Table 8); format: in vivo, mouse (BDF1-strain); conditions: 1×10^3 cells; MMC 0.5 mg/kg i.p., B-TL 1/10 none or 0.25 ml × 7 s.c.
Protocol: P-388 leukemia cells were inoculated intraperitoneally into BDF1 -strain mice (male, 7 weeks old) in an amount of 1×10^3 cells per mouse, and B-TL 1/10 was administered subcutaneously at the back at a dose of 0.25 ml per mouse on the day of inoculation and thereafter administered subcutaneously at the back at the same dose once a day repeatedly for 7 days. Mitomycin C (MMC) was administered intraperitoneally at a dose of 0.5 mg/kg on the first day after the inoculation of the P-388 leukemia cells.

L-1210 leukemia cells [2] = experiment: Enhancement of carcinostatic activity of Mitomycin C to L-1210 leukemia cells, divided B-TL 1/10 dosing (Table 5); format: in vivo, mouse (BDF1-strain); conditions: MMC 4 mg/kg
Protocol: (§1) (1) L-1210 leukemia cells were inoculated intraperitoneally into BDF1 -strain mice (male, 6 to 7 weeks old) in an amount of 1×10^3, 1×10^4 or 1×10^5 cells per mouse, B-TL 1/10 was administered subcutaneously at the back at a dose of 0.25 ml per mouse once a day repeatedly from the day of inoculation for 7 days in total. Mitomycin C (MMC) was administered intraperitoneally at a dose of 4 mg/kg on the first day after the inoculation of the cancerous cells.
(2) In the same manner as in (1), L-1210 leukemia cells were inoculated and MMC and the B-T were administered. B-TL 1/10 was administered subcutaneously at the back, […], and once on the third, 4th, 5th and 6th days after the inoculation.

[3] = tested on: Ehrlich's ascites cancerous cells; experiment: Enhancement of carcinostatic activity of Mitomycin C to Ehrlich's ascites cancer cells, B-TL 1/10 pretreatment (Table 11); format: in vivo, mouse (ICR-strain); conditions: 1×10^5 cells, B-TL 1/10 none or 0.25 ml × 8 s.c.
Protocol: (3) B-TL 1/10 was administered subcutaneously at the back of ICR-strain mice (male, 5 weeks old) at a dose of 0.25 ml per mouse once a day repeatedly for 8 days in total, and on the day following the eighth administration, 1×10^5 Ehrlich's ascites cancerous cells were inoculated intraperitoneally. On the day following the inoculation of the cancerous cells, Mitomycin C (MMC) was administered intraperitoneally at a dose of 0.5 mg/kg or 1 mg/kg.

L-1210 leukemia cells [4] = experiment: Enhancement of carcinostatic activity of Mitomycin C to L-1210 leukemia cells (Table 4); format: in vivo, mouse (BDF1-strain); conditions: for Number of survivors/Number of tested mice (on the 38th day) / T/C (%): MMC 4 mg/kg i.p., B-TL 1/10 none or 0.25 ml × 7 s.c.
Protocol: as §1

[5] = tested on: Ehrlich's ascites cancer cells; experiment: Enhancement of carcinostatic activity of Mitomycin C to Ehrlich's ascites cancer cells (Table 9); format: in vivo, mouse (ICR-strain); conditions: 1×10^5 cells; MMC 0.5 mg/kg i.p.
Protocol: (1) Ehrlich's ascites cancer cells were inoculated intraperitoneally into ICR-strain mice (female, 6 weeks old) in an amount of 1×10^5 cells per mouse, and B-TL 1/10 was administered subcutaneously at the back at a dose of 0.25 ml per mouse once a day repeatedly from the third day after the inoculation of the cancerous cells for 7 days in total. Mitomycin C (MMC) was administered intraperitoneally at a dose of 0.5 mg/kg on the first day after the inoculation of the cancerous cells.

L-1210 leukemia cells [6] = experiment: Enhancement of carcinostatic activity of Mitomycin C to subcutaneous L-1210 tuberous tumor (Table 7); format: in vivo, mouse (BDF1-strain)
Protocol: (4) L-1210 leukemia cells were inoculated subcutaneously at the armpit of BDF1 -strain mice (male, 7 weeks old) in an amount of 1×10^6 cells per mouse to form a tuberous tumor. B-TL 1/10 was administered subcutaneously at the back at a dose of 0.25 ml per mouse once a day repeatedly from the first day after the inoculation of the cancerous cells for 7 days in total, and Mitomycin C was administered into the tumor at a dose of 4 mg/kg on the first day after the inoculation of the cancerous cells.

Escherichia coli TK-16 [7] = experiment: Antibacterial activity-enhancing effect with Piperacillin in Escherichia coli infection (Table 17); format: in vivo, Escherichia coli; ICR-strain mice; conditions: for Number of survivors: 2×10^7 cells/mouse, 5 mice, 7th day
Protocol: Escherichia coli TK-16 was administered intraperitoneally into a group of five ICR-strain mice (male, 4 weeks old) in an amount of 2×10^7 cells/mouse, and after one hour, Piperacillin was administered once subcutaneously at the back. B-TL 1/5 was administered subcutaneously at the back at a dose of 0.25 ml per mouse once a day on the 7th, 6th and 5th days before the inoculation of the bacteria, and B-TL 1/10 at a dose of 0.25 ml per mouse once a day on the second and first days before the inoculation of the bacteria. A physiological salt solution was administered to the control group in the same manner as above, and the numbers of the survivors on the 7th day after the inoculation of the bacteria were observed.

[8] = tested on: Ehrlich's ascites cancerous cells; experiment: Enhancement of carcinostatic activity of Carboquan or Adriamycin to Ehrlich's ascites cancer cells (Table 10); format: in vivo, mouse (ICR-strain); conditions: 1×10^5 cells, B-TL 1/10 none or 0.25 ml × 7 s.c.
Protocol: (2) Ehrlich's ascites cancerous cells were inoculated intraperitoneally into ICR-strain mice male, 6 weeks old) in an amount of 1×10^5 cells per mouse. B-TL 1/10 was administered subcutaneously at the back at a dose of 0.25 ml per mouse once a day repeatedly from the day of inoculation for 7 days in total. On the day following the inoculation of the cancerous cells, 0.25 mg/kg of Carboquan (CQ) or 5 mg/kg of Adriamycin (AM) was administered intraperitoneally.

[9] = tested on: B-16 melanoma cancerous cells; experiment: Enhancement of carcinostatic activity of Adriamycin to B-16 melanoma cancerous cells (Table 12); format: in vivo, mouse (BDF1-strain); conditions: 0.2 g cells i.p.; AM 2 mg/kg i.p., B-TL 1/10 none or 0.25 ml × 7 s.c.
Protocol: Fifteen grams of B-16 melanoma cell cluster was milled by means of a mesh, and then suspended in 15 ml of a physiological salt solution, after which the resulting suspension was transplanted intraperitoneally in BDF1 -strain mice (male, 6 weeks old) in an amount of 0.2 ml per mouse (i.e., 0.2 g of the cells were transplanted per mouse). B-TL 1/10 was administered subcutaneously at the back at a dose of 0.25 ml per mouse once a day for 7 days from the day of transplantation. Adriamycin (AM) was administered intraperitoneally once at a dose of 2 mg/kg on the day following the day of cancer transplantation.

Escherichia coli TK-16 [10] = experiment: Infection-controlling effect at a low immunity (cyclophosphamide-treated mice, Table 16); format: in vivo, Escherichia coli; ICR-strain mice; conditions: for Number of survivors: 15 mice, cyclophosphamide 100 mg/kg, 7th day
Protocol: Cyclophosphamide was administered intraperitoneally into a group of fifteen ICR-strain mice (male, 4 weeks old) at a dose of 100 mg/kg. On the next day, B-TL 1/10 was administered subcutaneously at the back at a dose of 0.25 ml per mouse once a day repeatedly for 4 days, and a physiological salt solution was administered to the contorl group in the same manner as described above. On the day following the administration of B-TL 1/10, Escherichia coli TK-16 was administered intraperitoneally, and the numbers of the survivors on the 7th day after the inoculation of the bacteria were observed.

[11] = 1×10^6 cells s.c., MMC 4 mg/kg into the tumor, B-TL 1/10 none or 0.25 ml × 7 s.c.

## Nc1ccn([C@@H]2O[C@H](CO)[C@@H](O)[C@@H]2O)c(=O)n1 [Ara-C, Arabinofuranocylcytocine]
L-1210 leukemia cells [1]
  Number of survivors/Number of tested mice (on the 30th day): 0/4
  T/C (%): 152%

## CO[C@@]12[C@H](COC(N)=O)C3=C(C(=O)C(C)=C(N)C3=O)N1C[C@@H]1N[C@@H]12 [MMC, Mitomycin C]
P-388 leukemia cells
  Number of survivors/Number of tested mice (on the 41st day): 0/3
  T/C (%): 101%
L-1210 leukemia cells [2]; 1 × 10^3 cells/mouse
  Number of survivors/Number of tested mice (on the 40th day): 1/4
  T/C (%): 187%
L-1210 leukemia cells [2]; 1 × 10^4 cells/mouse
  Number of survivors/Number of tested mice (on the 40th day): 1/4
  T/C (%): 202%
L-1210 leukemia cells [2]; 1 × 10^5 cells/mouse
  Number of survivors/Number of tested mice (on the 40th day): 0/4
  T/C (%): 136%
[3]; MMC 0.5 mg/kg i.p.
  Number of survivors/Number of tested mice (on the 40th day): 1/5
  T/C (%): 157%
[3]; MMC 1 mg/kg i.p.
  Number of survivors/Number of tested mice (on the 40th day): 0/5
  T/C (%): 172%
L-1210 leukemia cells [4]; 1 × 10^3 cells/mouse
  Number of survivors/Number of tested mice (on the 38th day): 4/13
  T/C (%): 192%
L-1210 leukemia cells [4]; 1×10^3 cells, same tendency at 1×10^4 and 1×10^5
  life-prolonging effect (in words): a life-prolonging effect was observed
L-1210 leukemia cells [4]; 1 × 10^4 cells/mouse
  Number of survivors/Number of tested mice (on the 38th day): 2/9
  T/C (%): 188%
L-1210 leukemia cells [4]; 1 × 10^5 cells/mouse
  Number of survivors/Number of tested mice (on the 38th day): 0/4
  T/C (%): 136%
[5]
  Number of survivors/Number of tested mice (on the 40th day): 1/10
  T/C (%): 158%
L-1210 leukemia cells [6]; [11]
  Number of survivors/Number of tested mice (on the 30th day): 4/5
  T/C (%): 304%
L-1210 leukemia cells [6]; 30th day versus control measured on 8-10th day (control = 100)
  Weight of tumor, Ratio to Control: 156
L-1210 leukemia cells [6]; on the 30th day, 4 survivors among 5, MMC 4 mg/kg, B-TL 1/10 none or 0.25 ml × 7
  Weight of tumor: 808 ± 461 mg

## CCN1CCN(C(=O)N[C@@H](C(=O)N[C@@H]2C(=O)N3[C@@H]2SC(C)(C)[C@@H]3C(=O)O)c2ccccc2)C(=O)C1=O [Piperacillin]
Escherichia coli TK-16 [7]; Piperacillin 0.156 mg/mouse s.c.
  Number of survivors: 0
Escherichia coli TK-16 [7]; Piperacillin 0.313 mg/mouse s.c.
  Number of survivors: 0
Escherichia coli TK-16 [7]; Piperacillin 0.625 mg/mouse s.c.
  Number of survivors: 1
Escherichia coli TK-16 [7]; Piperacillin 1.25 mg/mouse s.c.
  Number of survivors: 0
Escherichia coli TK-16 [7]; Piperacillin 2.5 mg/mouse s.c.
  Number of survivors: 2
Escherichia coli TK-16 [7]; Piperacillin dose, without or with B-TL 1/5 then B-TL 1/10 pretreatment
  ED50: 3.54 mg/mouse

## COC(COC(N)=O)C1=C(N2CC2)C(=O)C(C)=C(N2CC2)C1=O (racemic) [CQ, Carboquan]
[8]; CQ 0.25 mg/kg i.p.
  Number of survivors/Number of tested mice (on the 40th day): 0/4
  T/C (%): 138%

## COc1cccc2c1C(=O)c1c(O)c3c(c(O)c1C2=O)C[C@@](O)(C(=O)CO)C[C@@H]3O[C@H]1C[C@H](N)[C@H](O)[C@H](C)O1 [AM, Adriamycin]
[8]; AM 5 mg/kg i.p.
  Number of survivors/Number of tested mice (on the 40th day): 2/4
  T/C (%): 175%
[9]
  Number of survivors/Number of tested mice (on the 35th day): 1/4
  T/C (%): 182%

## O=P1(N(CCCl)CCCl)NCCCO1 (centres unmarked) [cyclophosphamide, Cyclophosphamide]
Escherichia coli TK-16 [10]; 1.0 × 10^6 cells/mouse
  Number of survivors: 3
Escherichia coli TK-16 [10]; 2.0 × 10^5 cells/mouse
  Number of survivors: 10
Escherichia coli TK-16 [10]; 3.0 × 10^5 cells/mouse
  Number of survivors: 10
Escherichia coli TK-16 [10]; 4.0 × 10^5 cells/mouse
  Number of survivors: 6
Escherichia coli TK-16 [10]; 8.0 × 10^5 cells/mouse
  Number of survivors: 4
Escherichia coli TK-16 [10]; Table 16
  LD50 versus control (in words): significantly lower
Escherichia coli TK-16 [10]; cyclophosphamide 100 mg/kg i.p., without or with B-TL 1/10 0.25 ml s.c. × 4 days
  LD50 (of bacteria): 2.7 × 10^5 cells/mouse
Escherichia coli TK-16 [10]; mice given cyclophosphamide
  infection-controlling effect (in words): the inhibition of the infection-controlling effect was confirmed
